In ChEMBL document CHEMBL1148585, “Classification of chemical compounds by protein-compound docking for use in designing a focused library” (J Med Chem, 2006):

Biological target: T1, Macrophage migration inhibitory factor (Homo sapiens, UniProt P14174)
T1 sequence (P14174 whole entry): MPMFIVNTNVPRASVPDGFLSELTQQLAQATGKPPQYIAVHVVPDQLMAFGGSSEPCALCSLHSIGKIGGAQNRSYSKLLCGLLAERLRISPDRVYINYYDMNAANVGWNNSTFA
Experiment: Inhibition of MIF

Row | SMILES | IC50 [µM]
1 | Oc1ccc(CSc2ccncc2)cc1O | 0.4
2 | O=C(c1cnc(CCCC2CCCCC2)o1)N1CCN(Cc2ccccc2)CC1 | 30
3 | CC(C)C(=O)Nc1cc2c(cc1CCc1cccc3ccccc13)C(C(=O)O)CC2c1cccs1 (stereo not given) | 8
4 | O=C(O)C1Nc2ccc(Br)cc2C2C=CCC12 (stereo not given) | 3.4
5 | O=C(O)CC(c1ccc(Cl)cc1)(c1ccc(Cl)cc1)c1ccc(Cl)cc1 | 8.1
